From PubChem BioAssay (NCI)
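Step 1: Grow cells in 96-well plates. Step 2: Expose to compound for 48 hours at 5 concentrations. Step 3: Interpolate endpoints linearly; if unreached, use highest concentration. Definition used: TGI = concentration required for complete inhibition of growth.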

Columns and labels:
Experiment in all cases: growth of human tumour cells (NCI), 48 h
[1] = system: A498 renal
[2] = system: CCRF-CEM leukemia
[3] = system: COLO 205 colon
[4] = system: DU-145 prostate
[5] = system: EKVX NSCLC
[6] = system: HCC-2998 colon
[7] = system: HCT-15 colon
[8] = system: HL-60(TB) leukemia
[9] = system: K-562 leukemia
[10] = system: LOX IMVI melanoma
[11] = system: M14 melanoma
[12] = system: MDA-N
[13] = system: NCI/ADR-RES ovarian
[14] = system: OVCAR-5 ovarian
[15] = system: SF-268 CNS
[16] = system: SK-MEL-2 melanoma
[17] = system: SK-OV-3 ovarian
[18] = system: SN12C renal
[19] = system: TK-10 renal
[20] = system: U251 CNS

Structure (SMILES) | TGI [1] [µM] | TGI [2] [µM] | TGI [3] [µM] | TGI [4] [µM] | TGI [5] [µM] | TGI [6] [µM] | TGI [7] [µM] | TGI [8] [µM] | TGI [9] [µM] | TGI [10] [µM] | TGI [11] [µM] | TGI [12] [µM] | TGI [13] [µM] | TGI [14] [µM] | TGI [15] [µM] | TGI [16] [µM] | TGI [17] [µM] | TGI [18] [µM] | TGI [19] [µM] | TGI [20] [µM]
CCCCNc1nc2ccccc2c2c1ncn2CC(C)C | > 100 | > 100 | > 100 | > 100 | > 100 | > 100 | > 100 | > 100 | > 100 | > 100 | > 100 | > 100 | > 100 | > 100 | > 100 | > 100 | > 100 | > 100 | > 100 | > 100
CCN(CC)CCC(=O)c1ccc(Sc2ccc(F)cc2)cc1 | 45.7 | 34 | 41.9 | 36.1 | 41.8 | 89.6 | 33.4 | 50.5 | > 100 | 37.2 | 54.6 | 49 | 71.1 | 39.3 | 35.1 | 45.1 | 45 | 46.8 | 27.9 | 31.1
CCOc1ccc2nc3nc(=O)[nH]c(C)c3c(NCCCN(CC)CC)c2c1 | > 100 | > 100 | > 100 | > 100 | > 100 | > 100 | > 100 | > 100 | > 100 | > 100 | > 100 | > 100 | > 100 | > 100 | > 100 | > 100 | > 100 | > 100 | > 100 | > 100
C=CCc1[nH]c2c(OCc3ccccc3)cc(N(CC=C)C(C)=O)cc2c1C | 25 | 75.9 | 30.1 | 27.8 | 21 | 28.4 | 25.6 | 39.9 | > 100 | 25 | 21.8 | 27.9 | 31 | 27.2 | 24.6 | 26.1 | 31.9 | 32 | 30 | 25.3
